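Cells were grown in 96-well plates and exposed to each compound for 48 hours at five concentrations; endpoints were interpolated linearly between bracketing concentrations, or set to the highest concentration if not reached. Here, GI50 denotes the concentration required for 50% inhibition of growth.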 Calls of active or inactive are those of the source. Rule as the data show it: active = GI50 up to about 1.1 µM and inactive = higher.
Experiments:
Experiment in all cases: DTP human tumour cell line panel, 48 h
HCT-116 = tested on: HCT-116
OVCAR-3 = tested on: OVCAR-3
MOLT-4 = tested on: MOLT-4
SK-MEL-28 = tested on: SK-MEL-28
A549 = tested on: A549
A498 = tested on: A498
OVCAR-8 = tested on: OVCAR-8
HT-29 = tested on: HT-29
LXFL 529 = tested on: LXFL 529
U-251 = tested on: U-251
Malme-3M = tested on: Malme-3M
HL-60 = tested on: HL-60
OVCAR-4 = tested on: OVCAR-4
SF-539 = tested on: SF-539
SK-MEL-5 = tested on: SK-MEL-5
SNB-78 = tested on: SNB-78
NCI-H23 = tested on: NCI-H23
PC-3 = tested on: PC-3
MCF7 = tested on: MCF7
MDA-MB-231 = tested on: MDA-MB-231

Measured: GI50

c1ccc2c(c1)cc1n2CC2CN=NC12 (centres undefined)
inactive: HCT-116 > 100 µM | OVCAR-3 > 100 µM | MOLT-4 > 100 µM | SK-MEL-28 > 100 µM | A549 > 100 µM | A498 > 100 µM | OVCAR-8 > 100 µM | HT-29 > 100 µM | LXFL 529 > 100 µM | U-251 > 100 µM | Malme-3M > 100 µM | HL-60 > 100 µM | OVCAR-4 > 100 µM | SF-539 > 100 µM | SK-MEL-5 > 100 µM | SNB-78 > 100 µM

C=C(CCCCC)CN1CCCC1C(C)=O (centres undefined)
inactive: HCT-116 27.6 µM | OVCAR-3 27.9 µM | MOLT-4 8.75 µM | SK-MEL-28 57.3 µM | A549 32.9 µM | A498 35 µM | OVCAR-8 28.6 µM | HT-29 29.6 µM | LXFL 529 27.3 µM | NCI-H23 17.4 µM | U-251 30.6 µM | Malme-3M 41.8 µM | HL-60 4.32 µM | OVCAR-4 4.45 µM | SF-539 35.6 µM | SK-MEL-5 17.9 µM | SNB-78 26.1 µM

O=C(c1ccccc1)n1cc(/C=C/[N+](=O)[O-])c2ccccc21
inactive: HCT-116 17.9 µM | OVCAR-3 51.8 µM | MOLT-4 17.2 µM | SK-MEL-28 18.5 µM | A549 85.1 µM | A498 > 100 µM | OVCAR-8 35.6 µM | HT-29 44.2 µM | LXFL 529 18.5 µM | NCI-H23 20.1 µM | U-251 18.5 µM | Malme-3M 32.2 µM | HL-60 3.24 µM | OVCAR-4 27 µM | SF-539 21.4 µM | SK-MEL-5 34.8 µM | SNB-78 30.9 µM

CCOC(=O)C(Cc1cc(OC)c(CC(C(=O)OCC)C(=O)OCC)cc1OC)C(=O)OCC
inactive: HCT-116 > 100 µM | OVCAR-3 > 100 µM | MOLT-4 > 100 µM | SK-MEL-28 > 100 µM | A549 > 100 µM | A498 > 100 µM | OVCAR-8 > 81.1 µM | HT-29 > 100 µM | LXFL 529 > 100 µM | NCI-H23 > 100 µM | U-251 > 66.4 µM | Malme-3M > 100 µM | HL-60 > 100 µM | PC-3 > 100 µM | OVCAR-4 > 100 µM | SF-539 29.2 µM | MCF7 > 100 µM | MDA-MB-231 44.9 µM | SK-MEL-5 > 100 µM | SNB-78 57.9 µM

COc1ccc(O)cc1 [MEQUINOL]
inactive: HCT-116 > 100 µM | OVCAR-3 44.8 µM | MOLT-4 74.3 µM | SK-MEL-28 > 100 µM | A549 > 100 µM | A498 > 100 µM | OVCAR-8 55.7 µM | HT-29 > 100 µM | LXFL 529 33.6 µM | NCI-H23 > 100 µM | U-251 > 100 µM | Malme-3M 77.6 µM | HL-60 44.1 µM | OVCAR-4 > 100 µM | SF-539 47.4 µM | SK-MEL-5 42.8 µM | SNB-78 > 100 µM

O=C(O)CCCCCO
inactive: HCT-116 > 100 µM | OVCAR-3 > 100 µM | MOLT-4 > 100 µM | SK-MEL-28 > 100 µM | A549 > 100 µM | A498 > 100 µM | OVCAR-8 > 100 µM | HT-29 > 100 µM | LXFL 529 > 100 µM | NCI-H23 > 100 µM | U-251 > 100 µM | Malme-3M > 100 µM | HL-60 > 100 µM | OVCAR-4 > 100 µM | SF-539 > 100 µM | SK-MEL-5 > 100 µM | SNB-78 > 100 µM

COc1cccc(C2CC23C(=O)NC(=O)NC3=O)c1 (centres undefined)
inactive: HCT-116 > 100 µM | OVCAR-3 > 100 µM | MOLT-4 > 100 µM | SK-MEL-28 > 100 µM | A549 > 100 µM | A498 > 100 µM | OVCAR-8 > 100 µM | HT-29 > 100 µM | LXFL 529 > 100 µM | NCI-H23 > 100 µM | U-251 > 100 µM | Malme-3M > 100 µM | HL-60 > 100 µM | OVCAR-4 > 100 µM | SF-539 > 100 µM | SK-MEL-5 > 100 µM | SNB-78 > 100 µM

O=S(=O)(C/C(=N\O)c1ccccc1)c1ccccc1
inactive: HCT-116 > 100 µM | OVCAR-3 > 100 µM | MOLT-4 > 100 µM | SK-MEL-28 > 100 µM | A549 > 100 µM | A498 > 100 µM | OVCAR-8 > 100 µM | HT-29 > 100 µM | LXFL 529 > 100 µM | NCI-H23 > 100 µM | U-251 > 100 µM | Malme-3M > 100 µM | HL-60 > 100 µM | OVCAR-4 > 100 µM | SF-539 > 100 µM | SK-MEL-5 > 100 µM | SNB-78 > 100 µM

CC(=O)C1C(=O)C(=O)N(c2ccccc2C(C)C)C1=O (centres undefined)
inactive: HCT-116 > 100 µM | OVCAR-3 > 100 µM | MOLT-4 > 100 µM | SK-MEL-28 > 100 µM | A549 > 100 µM | A498 > 100 µM | OVCAR-8 > 100 µM | HT-29 > 100 µM | LXFL 529 > 100 µM | NCI-H23 > 100 µM | U-251 > 100 µM | Malme-3M > 100 µM | HL-60 > 100 µM | OVCAR-4 > 100 µM | SF-539 > 100 µM | SK-MEL-5 > 100 µM | SNB-78 > 100 µM

COc1ccc(COC2CC(OC)OC(C)C2OC(=O)c2ccccc2)cc1 (centres undefined)
inactive: HCT-116 28.6 µM | OVCAR-3 31.9 µM | MOLT-4 15.6 µM | SK-MEL-28 41.2 µM | A549 33 µM | A498 61.5 µM | OVCAR-8 31.6 µM | HT-29 16.6 µM | LXFL 529 26.5 µM | NCI-H23 28.4 µM | U-251 35.5 µM | Malme-3M 29 µM | HL-60 20.7 µM | OVCAR-4 32.8 µM | SF-539 54.1 µM | SK-MEL-5 17 µM | SNB-78 41.7 µM

CC1(C)Oc2ccccc2[N+]([O-])=C1c1ccccc1
inactive: HCT-116 > 100 µM | OVCAR-3 > 100 µM | MOLT-4 > 100 µM | SK-MEL-28 > 100 µM | A549 > 100 µM | A498 > 100 µM | OVCAR-8 > 100 µM | HT-29 > 100 µM | LXFL 529 > 100 µM | NCI-H23 > 100 µM | U-251 > 100 µM | Malme-3M > 100 µM | HL-60 > 100 µM | OVCAR-4 > 100 µM | SF-539 > 100 µM | SK-MEL-5 > 100 µM | SNB-78 > 100 µM
